Where a SMILES comes first, the peptide text is derived from it. Where no end group is shown, it is not given here.
Assays:
human mast cells = conditions: Stanworth et al. 1979; cited from earlier work
rodent mast cells = conditions: Stanworth et al. 1979; cited from earlier work
[1] = tested on: human natural killer (NK) cell-induced cytotoxicity against K562 human erythroleukemia cells; test: natural killer (NK) cell assay, chromium 51 release; assay type: cell-based
Protocol: 1. To calculate percent inhibition, the average of the three dilutions of
2. N K effector cells were human mononuclear cells freshly isolated by
when incubated with normal human mononuclear cells (lymphocytes and monocytes) separated by ficoll-metronidazole gradient. […] E., et al., J. Clin. Invest. 67:1324, 1981).
The target cells used were a human erythroleukemia cell line K562 which has molecular structures recognized by NK cells. The K562 targets were prepared by incubating them with the radioactive isotope chromium 51 which is incorporated within the cells. The cells were then washed to remove externally adherent chromium 51 and 20,000 K562 cells were added to 400,000, 200,000 and 100,000 mononuclear cells to provide NK killer-to-target ratio of 20 to 1, 10 to 1, and 5 to 1, respectively, in a final volume of 200 microliters. After a 3-hour incubation at 37° C. in a 5% CO2 atmosphere, the amount of chromium 51 in the supernatent (released from dead target cells) was counted to quantitate the amount of NK killing activity. The killing activity of peptide-treatedcells was compared to non-peptide treated cells to assess the peptide's effect on NK killing activity.

[2] = tested on: human monocyte IgG Fc receptors; conditions: cited from earlier work
mouse macrophages = conditions: Stanworth, Mol. Immunol. 19, 1245 (1982); cited from earlier work
[3] = tested on: macrophage IgG Fc receptors of mice; conditions: Stanworth, Mol. Immunol. 19, 1245 (1982); cited from earlier work
[4] = target: T1, IgE Fc receptors on a human lymphoblastoid cell line (wil-2wt) (Homo sapiens, UniProt P06734); conditions: Hamburger, Immunology 38, 781 (1979); cited from earlier work
T1 construct: IgE Fc receptors on a human lymphoblastoid cell line (wil-2wt); host or cells: wil-2wt human lymphoblastoid cell line (endogenous receptor)
T1 sequence (P06734 1-321): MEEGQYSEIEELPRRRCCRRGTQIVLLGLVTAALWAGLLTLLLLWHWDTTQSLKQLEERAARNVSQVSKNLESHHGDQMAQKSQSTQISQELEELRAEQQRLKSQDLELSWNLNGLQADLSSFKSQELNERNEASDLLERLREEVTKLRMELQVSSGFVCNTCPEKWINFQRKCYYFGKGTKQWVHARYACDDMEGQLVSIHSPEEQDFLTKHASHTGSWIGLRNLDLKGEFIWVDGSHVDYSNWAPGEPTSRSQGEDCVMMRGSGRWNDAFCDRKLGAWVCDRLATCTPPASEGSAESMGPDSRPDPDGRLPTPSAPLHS

[5] = peptide 100 μg/ml, (killer-to-target ratio 20 to 1)

| Molecule | % cytotoxicity ([1]; peptide 25 μg/ml, 5 to 1) [%] | % cytotoxicity ([1]; peptide 25 μg/ml, 10 to 1) [%] | % cytotoxicity ([1]; peptide 25 μg/ml, 20 to 1) [%] | % cytotoxicity ([1]; peptide 50 μg/ml, 5 to 1) [%] | % cytotoxicity ([1]; peptide 50 μg/ml, 10 to 1) [%] | % cytotoxicity ([1]; peptide 50 μg/ml, 20 to 1) [%] | % cytotoxicity ([1]; peptide 100 μg/ml, 5 to 1) [%] | % cytotoxicity ([1]; peptide 100 μg/ml, 10 to 1) [%] | % cytotoxicity [1, 5] [%] | other results |
| --- | --- | --- | --- | --- | --- | --- | --- | --- | --- | --- |
| PRKTKGSGFFVF [peptide identical to portion of Cε 4 of human IgE, aa 495-506] | – | – | – | – | – | – | – | – | – | degranulation of human mast cells (human mast cells): able to cause degranulation; degranulation of rodent mast cells (rodent mast cells): able to cause degranulation |
| C[C@H](NC(=O)[C@@H](N)CC(=O)O)C(=O)N[C@@H](CCCNC(=N)N)C(=O)N[C@@H](Cc1c[nH]cn1)C(=O)O [Asp--Ala--Arg--His, Asp-Ala-Arg-His] (H-DARH-OH) | 6.8 | 12.9 | 19.3 | 7.5 | 12.8 | 13.8 | 10.5 | 16.4 | 24.5 | – |
| QYDSTYR [peptide identical to IgG aa 295-301] | – | – | – | – | – | – | – | – | – | blocking of IgG binding to human monocyte IgG Fc receptors [2]: could slightly block |
| VFSRLEVTRAE [peptide identical to a portion of Cε 4 of human IgE at aa 505-515] | – | – | – | – | – | – | – | – | – | effect on binding of 125I-human IgG to mouse macrophages (mouse macrophages): marked enhancement |
| C[C@H](N)C(=O)N[C@@H](CCCNC(=N)N)C(=O)N[C@@H](Cc1c[nH]cn1)C(=O)N[C@@H](CO)C(=O)O [Ala--Arg--His--Ser, Ala-Arg-His-Ser] (H-ARHS-OH) | 12.5 | 19.4 | 24.8 | 10.4 | 20.7 | 26.3 | 10.6 | 18.5 | 21.8 | – |
| YSKLTVDKSR [decapeptide from human IgG, identical to IgG aa 407-416] | – | – | – | – | – | – | – | – | – | blocking of human IgG binding to macrophage IgG Fc receptors of mice [3]: blocked human IgG binding |
| PDARHS [hexapeptide derived from Cε 4 at aa 476-481] | – | – | – | – | – | – | – | – | – | blocking of human IgE-binding to IgE Fc receptors on wil-2wt cells [4]: could block |
| C[C@H](NC(=O)[C@H](CC(=O)O)NC(=O)[C@@H]1CCCN1)C(=O)N[C@@H](CCCNC(=N)N)C(=O)O [Pro--Asp--Ala-- Arg, Pro-Asp-Ala-Arg] (H-PDAR-OH) | 10.1 | 17.8 | 22.7 | 10.3 | 15.5 | 23.1 | 5.6 | 10.4 | 17.1 | – |
